Measured values: patent US20230295212A1 (ROME Therapeutics, Inc., priority 2022, published 2023)

target: T1, LINE1 reverse transcriptase (Homo sapiens, UniProt O00370); experiment: Stable artificial-intron Cis LINE1 reporter assay (HeLa Tet-On 3G, Firefly luciferase); assay type: cell-based; conditions: HeLa L1 artificial-intron reporter cells, doxycycline 500 ng/mL, 72 h, class symbols
T1 construct: expressed in transfected cells; host or cells: HeLa Tet-On 3G (Takara, cat no 631183)
Method: Exemplary compounds, were tested for the ability to inhibit LINE1 reverse transcriptase using a stable artificial-intron Cis LINE1 reporter assay. Assay procedures and results are described below.
A stable HeLa Tet-On 3G (Takara, cat no 631183) cell line expressing a bi-directional inducible LINE1 construct was generated as described in Xie, Y. et al. “Cell division promotes efficient retrotransposition in a stable L1 reporter cell line,” Mobile DNA (2013) 4:10. Single cell clones were screened for high Luciferase expression and the highest expression Firefly expressing clone was chosen for compound testing.
Test compounds were serially diluted in DMSO and spotted in 96-well plates. Subsequently, the HeLa Li artificial-intron reporter cells were plated into the compound-containing wells (8,000 cells/well), and the cells were induced for reporter expression with doxycycline (Sigma-Aldrich cat #D9891) at a final concentration of 500 ng/mL. Luminescence was measured 72 h after plating using the Dual-Glo Luciferase Assay System (Promega cat #E2940) following the manufacturer's instructions. The Firefly Luciferase activity was used to report LINE1 activity.

T1 sequence (O00370 whole entry, looked up): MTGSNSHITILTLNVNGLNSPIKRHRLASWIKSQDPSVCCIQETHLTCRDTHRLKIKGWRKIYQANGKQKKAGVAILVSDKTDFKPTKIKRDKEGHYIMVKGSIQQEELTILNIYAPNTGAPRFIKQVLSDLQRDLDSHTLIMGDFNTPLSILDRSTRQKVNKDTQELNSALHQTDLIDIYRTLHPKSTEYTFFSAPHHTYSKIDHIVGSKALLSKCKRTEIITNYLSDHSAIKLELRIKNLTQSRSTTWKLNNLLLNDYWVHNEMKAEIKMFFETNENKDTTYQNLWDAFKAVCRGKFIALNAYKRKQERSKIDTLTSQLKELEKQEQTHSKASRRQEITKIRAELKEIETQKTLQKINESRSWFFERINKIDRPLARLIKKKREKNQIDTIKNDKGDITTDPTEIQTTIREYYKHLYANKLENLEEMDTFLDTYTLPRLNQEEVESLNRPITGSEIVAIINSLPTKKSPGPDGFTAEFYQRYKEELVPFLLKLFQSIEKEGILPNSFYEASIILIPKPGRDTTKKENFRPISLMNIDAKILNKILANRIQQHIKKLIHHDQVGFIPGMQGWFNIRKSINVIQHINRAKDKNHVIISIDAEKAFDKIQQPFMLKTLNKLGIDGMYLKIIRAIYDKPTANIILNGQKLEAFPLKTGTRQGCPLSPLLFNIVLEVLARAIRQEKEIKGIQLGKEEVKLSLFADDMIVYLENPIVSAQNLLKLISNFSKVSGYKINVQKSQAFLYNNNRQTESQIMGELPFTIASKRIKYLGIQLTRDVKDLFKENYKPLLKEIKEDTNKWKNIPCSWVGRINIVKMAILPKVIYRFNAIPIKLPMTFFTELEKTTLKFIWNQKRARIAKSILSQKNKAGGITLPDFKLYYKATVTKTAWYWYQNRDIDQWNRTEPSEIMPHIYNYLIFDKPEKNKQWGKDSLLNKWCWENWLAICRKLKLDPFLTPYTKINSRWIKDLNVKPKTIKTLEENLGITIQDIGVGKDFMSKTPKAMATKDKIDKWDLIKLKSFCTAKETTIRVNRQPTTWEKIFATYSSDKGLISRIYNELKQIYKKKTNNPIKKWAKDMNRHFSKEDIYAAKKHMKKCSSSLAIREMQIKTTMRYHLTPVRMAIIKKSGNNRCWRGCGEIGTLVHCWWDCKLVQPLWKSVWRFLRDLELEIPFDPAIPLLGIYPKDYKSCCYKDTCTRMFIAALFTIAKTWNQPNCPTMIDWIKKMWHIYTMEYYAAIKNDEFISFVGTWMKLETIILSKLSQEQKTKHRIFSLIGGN

| IC50 [µM] | SMILES |
| --- | --- |
| > 1 | C#C[C@]1(CO)O[C@@H](n2ccc(N)nc2=O)[C@H](F)[C@@H]1O [Compound 32, 4-amino-1-((2R,3R,4R,5R)-5-ethynyl-3-fluoro-4-hydroxy-5-(hydroxymethyl)tetrahydrofuran-2-yl)pyrimidin-2(1H)-one] |
| > 1 | C#C[C@]1(CO)O[C@@H](n2ccc(=O)[nH]c2=O)[C@H](F)[C@@H]1O [Compound 33, 1-((2R,3R,4R,5R)-5-ethynyl-3-fluoro-4-hydroxy-5-(hydroxymethyl)tetrahydrofuran-2-yl)pyrimidine-2,4(1H,3H)-dione] |
| ≤ 0.05 | C#C[C@]1(CO)O[C@@H](n2ccc(N)nc2=O)[C@@H](F)[C@@H]1O [Compound 35, 4-amino-1-((2R,3S,4R,5R)-5-ethynyl-3-fluoro-4-hydroxy-5-(hydroxymethyl)tetrahydrofuran-2-yl)pyrimidin-2(1H)-one] |
| > 1 | C#C[C@]1(CO)O[C@@H](n2ccc(=O)[nH]c2=O)[C@@H](F)[C@@H]1O [Compound 36, 1-((2R,3S,4R,5R)-5-ethynyl-3-fluoro-4-hydroxy-5-(hydroxymethyl)tetrahydrofuran-2-yl)pyrimidine-2,4(1H,3H)-dione] |
| ≤ 0.05 | C#C[C@]1(CO)O[C@@H](c2ccc3c(N)ncnn23)C[C@@H]1O [Compound 37, (2R,3S,5R)-5-(4-aminopyrrolo[2,1-f][1,2,4]triazin-7-yl)-2-ethynyl-2-(hydroxymethyl) tetrahydrofuran-3-ol] |
| > 1 | C#C[C@]1(CO)O[C@@H](n2cc(C)c(=O)[nH]c2=O)C[C@@H]1O [Compound 38, 1-((2R,4S,5R)-5-ethynyl-4-hydroxy-5-(hydroxymethyl)tetrahydrofuran-2-yl)-5-methylpyrimidine-2,4(1H,3H)-dione] |
| 0.25 to 1 | C#C[C@]1(CO)O[C@@H](n2cc(C)c(=O)[nH]c2=O)[C@@H](F)[C@@H]1O [Compound 39, 1-((2R,3S,4R,5R)-5-ethynyl-3-fluoro-4-hydroxy-5-(hydroxymethyl)tetrahydrofuran-2-yl)-5-methylpyrimidine-2,4(1H,3H)-dione] |
| ≤ 0.05 | C#C[C@]1(CO)O[C@@H](n2cnc3c(N)nc(F)nc32)[C@@H](F)[C@@H]1O [Compound 42, (2R,3R,4S,5R)-5-(6-amino-2-fluoro-9H-purin-9-yl)-2-ethynyl-4-fluoro-2-(hydroxymethyl) tetrahydrofuran-3-ol] |
| ≤ 0.05 | CC[C@]1(CO)O[C@@H](n2ccc(N)nc2=O)C[C@@H]1O [Compound 44, 4-amino-1-((2R,4S,5R)-5-ethyl-4-hydroxy-5-(hydroxymethyl)tetrahydrofuran-2-yl)pyrimidin-2(1H)-one] |
| 0.05 to 0.1 | Nc1ccn([C@H]2C[C@H](O)[C@](CO)(CF)O2)c(=O)n1 [Compound 45, 4-amino-1-((2R,4S,5R)-5-(fluoromethyl)-4-hydroxy-5-(hydroxymethyl)tetrahydrofuran-2-yl)pyrimidin-2(1H)-one] |
| 0.05 to 0.1 | Nc1nc2c(ncn2[C@H]2C[C@H](O)[C@](CO)(CF)O2)c(=O)[nH]1 [Compound 46, 2-amino-9-((2R,4S,5R)-5-(fluoromethyl)-4-hydroxy-5-(hydroxymethyl)tetrahydrofuran-2-yl)-1,9-dihydro-6H-purin-6-one] |
| ≤ 0.05 | C=C[C@]1(CO)O[C@@H](n2ccc(N)nc2=O)[C@@H](F)[C@@H]1O [Compound 47, 4-amino-1-((2R,3S,4R,5R)-3-fluoro-4-hydroxy-5-(hydroxymethyl)-5-vinyltetrahydrofuran-2-yl)pyrimidin-2(1H)-one] |
| 0.05 to 0.1 | CO[C@]1(CO)O[C@@H](n2ccc(N)nc2=O)C[C@@H]1O [Compound 48, 4-amino-1-((2R,4S,5R)-4-hydroxy-5-(hydroxymethyl)-5-methoxytetrahydrofuran-2-yl)pyrimidin-2(1H)-one] |
| 0.05 to 0.1 | [N-]=[N+]=N[C@]1(CO)O[C@@H](n2ccc(N)nc2=O)C[C@@H]1O [Compound 49, 4-amino-1-((2R,4S,5R)-5-azido-4-hydroxy-5-(hydroxymethyl)tetrahydrofuran-2-yl)pyrimidin-2(1H)-one] |
| ≤ 0.05 | [N-]=[N+]=N[C@]1(CO)O[C@@H](n2ccc(N)nc2=O)[C@@H](F)[C@@H]1O [Compound 50, 4-amino-1-((2R,3S,4R,5R)-5-azido-3-fluoro-4-hydroxy-5-(hydroxymethyl)tetrahydrofuran-2-yl)pyrimidin-2(1H)-one] |
| ≤ 0.05 | CC[C@]1(CO)O[C@@H](n2ccc(N)nc2=O)[C@@H](F)[C@@H]1O [Compound 51, 4-amino-1-((2R,3S,4R,5R)-5-ethyl-3-fluoro-4-hydroxy-5-(hydroxymethyl)tetrahydrofuran-2-yl)pyrimidin-2(1H)-one] |
| 0.1 to 0.25 | CC[C@]1(COC(=O)C(C)C)O[C@@H](n2ccc(N)nc2=O)C[C@@H]1OC(=O)C(C)C [Compound 52, [(2R,3S,5R)-5-(4-amino-2-oxopyrimidin-1-yl)-2-ethyl-3-[(2-methylpropanoyl)oxy]oxolan-2-yl] methyl 2-methylpropanoate] |
| 0.25 to 1 | C=C[C@]1(COC(=O)C(C)C)O[C@@H](n2ccc(N)nc2=O)C[C@@H]1OC(=O)C(C)C [Compound 53, [(2R,3S,5R)-5-(4-amino-2-oxopyrimidin-1-yl)-2-ethenyl-3-[(2-methylpropanoyl)oxy]oxolan-2-yl] methyl 2-methylpropanoate] |
| > 1 | CC(C)[C@]1(CO)O[C@@H](n2ccc(N)nc2=O)C[C@@H]1O [Compound 55, 4-amino-1-[(2R,4S,5R)-4-hydroxy-5-(hydroxymethyl)-5-isopropyloxolan-2-yl] pyrimidin-2-one] |
| 0.1 to 0.25 | C=CCC1(CO)O[C@@H](n2ccc(N)nc2=O)C[C@@H]1O (stereo partly drawn) [Compound 56, 1-((2R,4S)-5-allyl-4-hydroxy-5-(hydroxymethyl)tetrahydrofuran-2-yl)-4-aminopyrimidin-2(1H)-one] |
| > 1 | CCCC1(CO)O[C@@H](n2ccc(N)nc2=O)C[C@@H]1O (stereo partly drawn) [Compound 57, 4-amino-1-((2R,4S,5R)-4-hydroxy-5-(hydroxymethyl)-5-propyltetrahydrofuran-2-yl)pyrimidin-2(1H)-one] |
| 0.05 to 0.1 | CC(C)C(=O)OC[C@@]1(CCl)O[C@@H](n2cc(F)c(N)nc2=O)C[C@@H]1OC(=O)C(C)C [Compound 58] |
| > 1 | Nc1ccn([C@H]2C[C@@H](O)[C@](CO)(CCl)O2)c(=O)n1 [Compound 59, 4-amino-1-[(2R,4R,5R)-5-(chloromethyl)-4-hydroxy-5-(hydroxymethyl)oxolan-2-yl] pyrimidin-2-one] |
| > 1 | CCC[C@]1(CO)O[C@@H](n2ccc(N)nc2=O)C[C@@H]1O [Compound 60, 4-amino-1-((2R,4S,5R)-4-hydroxy-5-(hydroxymethyl)-5-propyltetrahydrofuran-2-yl)pyrimidin-2(1H)-one] |
| ≤ 0.05 | [N-]=[N+]=N[C@]1(CO)O[C@@H](n2cc(F)c(N)nc2=O)C[C@@H]1O [Compound 61, 4-amino-1-((2R,4S,5R)-5-azido-4-hydroxy-5-(hydroxymethyl)tetrahydrofuran-2-yl)-5-fluoropyrimidin-2(1H)-one] |
| 0.25 to 1 | Nc1ccn([C@H]2C[C@H](O)[C@](CO)(CC(F)(F)F)O2)c(=O)n1 [Compound 62, 4-amino-1-[(2R,4S,5R)-4-hydroxy-5-(hydroxymethyl)-5-(2,2,2-trifluoroethyl)oxolan-2-yl] pyrimidin-2-one] |
| 0.25 to 1 | C=C[C@]1(CO)O[C@@H](n2cnc3c(=O)[nH]c(N)nc32)[C@@H](F)[C@@H]1O [Compound 63, 2-amino-9-[(2R,3S,4R,5R)-5-ethenyl-3-fluoro-4-hydroxy-5-(hydroxymethyl)oxolan-2-yl]-1H-purin-6-one] |
| 0.05 to 0.1 | CC[C@]1(CO)O[C@@H](n2cnc3c(N)nc(F)nc32)C[C@@H]1O [Compound 64, (2R,3S,5R)-5-(6-amino-2-fluoro-9H-purin-9-yl)-2-ethyl-2-(hydroxymethyl)tetrahydrofuran-3-ol] |
| ≤ 0.05 | Nc1nc(=O)n([C@H]2C[C@H](O)[C@](CO)(C(F)F)O2)cc1F [Compound 65, 4-amino-1-[(2R,4S,5R)-5-(difluoromethyl)-4-hydroxy-5-(hydroxymethyl)oxolan-2-yl]-5-fluoropyrimidin-2-one] |

| SMILES | IC50 [µM] |
| --- | --- |
| C#C[C@]1(CO)O[C@@H](n2ccc(N)nc2=O)C[C@@H]1O [Compound 41, 4-amino-1-((2R,4S,5R)-5-ethynyl-4-hydroxy-5-(hydroxymethyl)tetrahydrofuran-2-yl)pyrimidin-2(1H)-one] | ≤ 0.05 |
| C=C[C@]1(CO)O[C@@H](n2ccc(N)nc2=O)C[C@@H]1O [Compound 43, 4-amino-1-((2R,4S,5R)-4-hydroxy-5-(hydroxymethyl)-5-vinyltetrahydrofuran-2-yl)pyrimidin-2(1H)-one] | ≤ 0.05 |

same assay, conditions: HeLa L1 artificial-intron reporter cells, doxycycline 500 ng/mL, 72 h, numeric bounds

| IC50 [µM] | SMILES |
| --- | --- |
| > 30 | O=c1ccn([C@H]2C[C@H](O)[C@](CO)(CCl)O2)c(=O)[nH]1 [Compound 34, 1-((2R,4S,5R)-5-(chloromethyl)-4-hydroxy-5-(hydroxymethyl)tetrahydrofuran-2-yl)pyrimidine-2,4(1H,3H)-dione] |
| > 30 | CO[C@H]1C[C@H](n2ccc(N)nc2=O)O[C@@]1(CO)CCl [Compound 54, 4-amino-1-[(2R,4S,5R)-5-(chloromethyl)-5-(hydroxymethyl)-4-methoxyoxolan-2-yl]-3,4-dihydropyrimidin-2-one] |
